Earlier results in US20110263659A1, “Analogs of 1-Methylnicotinamide” (Cortria Corporation, priority 2008, published 2011).

Columns and labels:
[1] = human subjects; studies from Smolenski et al.
[2] = tested on: prostacyclin (PGI2) release; details: preclinical; PCT/IB06/004013, PCT/EP05/050057, US 11/715,660
[3] = di-hydro-MNA 1 mmol/kg s.c., HPLC

Compound	increase of brain tissue levels of 1-MNA (factor) (di-hydro-MNA 1 mmol/kg s.c.)	increase in liver 1-MNA levels [3] [fold]	increase in plasma 1-MNA levels [3] [fold]	maximum 1-MNA levels in brain extracellular fluid (di-hydro-MNA 1-3 mmol/kg s.c.) [µM]	half life [1] [h]	ability to stimulate the release of prostacyclin (PGI2) [2]
CN1C=CCC(C(N)=O)=C1 [di-hydro-MNA, 1,4-dihydro-1-methylnicotinamide]	twenty	9	4	> 10		
1-Methylnicotinamide [1-MNA]					2 to 3	ability to stimulate the release of prostacyclin (PGI2)
